This is an account of results in patent US12642270B2, “Substituted thiophene carboxamides, thiophene carboxylic acids and derivatives thereof” (Bayer Aktiengesellschaft, priority 2019, dated 2026).

One data set can be described thus: Log P by HPLC on reversed phase columns (EEC directive 79/831 Annex V.A8). It is filed as physicochemical. Particulars: LogP method [a]; compounds of formula (I), Table 1.1. Summed up:
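Reversed-phase HPLC per EEC 79/831 Annex V.A8, LC-UV with 10→95% acetonitrile linear gradient; eluent [a] 0.1% formic acid (acidic), [b] 0.001 M ammonium acetate (neutral), [c] 0.1% phosphoric acid (acidic). Calibrated with C3–C16 straight-chain alkan-2-ones, linear interpolation of retention times; multiple values joined by "+".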
For `COC(=O)C(Cc1ccccc1)NC(=O)c1sc(Br)c(Br)c1F` (stereo not shown) [1.0472], the LogP was 4.06^[a].

On to `CCOC(=O)C1(NC(=O)c2sc(Br)c(Br)c2F)CCCC1` [1.0446], for which the LogP is 4.21^[a]. On the same count and under the same terms, to `CCOC(=O)CNC(=S)c1sc(Br)c(Br)c1Cl` [1.0493] belongs 4.58^[a]; to `CCOC(=O)CCNC(=O)c1sc(Br)c(Br)c1F` [1.0450], 3.11^[a]; to `CCOC(=O)CNC(=O)c1sc(C(F)F)c(Br)c1Br` [1.0510], 3.02^[a]. On the same count and under the same terms, to `CCOC(=O)CNC(=O)c1sc(Br)c(Br)c1F` [1.0449] belongs 2.97^[a]; to `COC(=O)C1(NC(=O)c2sc(Br)c(Br)c2F)CCOCC1` [1.0447], 2.77^[a]; to `COC(=O)C1(NC(=S)c2sc(Br)c(Cl)c2C)CC1` [1.0526], 3.67^[a]. For `COC(=O)CC[C@H](NC(=O)c1sc(Br)c(Br)c1Cl)C(=O)OC` [1.0498], the LogP is 3.40^[a]. Take `CCOC(=O)C1(NC(=O)c2cc(C)c(Cl)s2)CC1` [1.0466]: the LogP was 2.52^[a]. Consider `CCOC(=O)C(NC(=O)c1sc(Cl)c(Cl)c1Br)C1CC1` (stereo not shown) [1.0524], for which the LogP is 4.35^[a].

The same data set, now with this note: method [a].
For the compound `COC(=O)CNC(=O)c1sc(Cl)c(Br)c1C#N` [1.0584], the LogP was 2.20^[a]. Still for that read-out and setting: to `CCOC(=O)C(NC(=O)c1sc(C#N)c(Br)c1Cl)C(C)C` (stereo not shown) [1.0588] belongs 3.92^[a]; to `CC(C)OC(=O)C(NC(=O)c1sc(Cl)c(Cl)c1Br)C1CC1` (stereo not shown) [1.0904], 4.89^[a]. Still for that read-out and setting: to `CCOC(=O)C1(NC(=O)c2sc(Br)c(Cl)c2Cl)CC1` [1.0197] belongs 3.47^[a]; to `CCCOC(=O)C1(NC(=O)c2sc(Br)c(Br)c2F)CCC1` [1.0928], 4.30^[a]; to `CCOC(=O)[C@@H](CC(C)C)NC(=O)c1sc(Br)c(Br)c1F` [1.0156], 4.78^[a]. Still for that read-out and setting: to `COC(=O)C(C)(C)NC(=O)c1sc(Br)c(Br)c1C#N` [1.0801] belongs 2.81^[a]; to `CCOC(=O)C1(NC(=O)c2sc(Cl)c(Cl)c2C#N)CC1` [1.0232], 2.72^[a]; to `COC(=O)C(NC(=O)c1sc(Cl)c(Br)c1C)(C1CC1)C1CC1` [1.0269], 3.98^[a]. For the compound `COC(=O)C1(NC(=O)c2sc(Cl)c(Cl)c2Br)CCC1` [1.0613], the LogP was 3.67^[a]. For `CCOC(=O)CN(O)C(=O)c1sc(Br)c(Br)c1F` [1.0542], the LogP was 2.54^[a]. As to `COC(=O)C(C)(C)NC(=O)c1sc(Cl)c(Br)c1C#N` [1.0608], the LogP was 2.77^[a]. Same read-out and setting: to `COC(=O)C(NC(=O)c1sc(Cl)c(Br)c1C)C(=O)OC` [1.0267] belongs 3.07^[a]; to `COC(=O)C(CSC(=O)N(C)C)NC(=O)c1sc(Br)c(Br)c1Cl` (stereo not shown) [1.0535], 3.59^[a]. On the same count and under the same terms, to `CCCCOC(=O)CNC(=O)c1sc(Br)c(Br)c1F` [1.0860] belongs 3.79^[a]. For the compound `COC(=O)C(NC(=O)c1sc(C#N)c(Br)c1Cl)C1CC1` (stereo not shown) [1.0587], the LogP was 3.08^[a].

As to `CCSC(=O)C1(NC(=O)c2sc(Br)c(Cl)c2C)CC1` [1.0252], the LogP is 3.74^[a]. Still for that read-out and setting: the same measure for `CCOC(=O)C1(NC(=O)c2sc(Cl)c(Cl)c2I)CCC1` [1.0191]: 4.12^[a]; for `COC(=O)CNC(=O)c1sc(Br)c(C(F)F)c1Br` [1.0647]: 2.56^[a]. On the same count and under the same terms, to `COC(=O)C1(NC(=O)c2sc(Br)c(Br)c2Cl)CCC1` [1.0849] belongs 3.75^[a]; to `CCSC(=O)C1(NC(=O)c2sc(Cl)c(Br)c2C)CC1` [1.0253], 3.77^[a]. On the same count and under the same terms, the same measure for `N#CC1(NC(=O)c2sc(Br)c(Br)c2Cl)CCSCC1` [1.0868]: 3.71^[a].

`COC(=O)C(C)(C)NC(=O)c1sc(Cl)c(Br)c1F` [1.0637]: the LogP was 3.27^[a]. The same measure, in the same setting: to `O=C(NC1(C(=O)OCc2ccccc2)CCC1)c1sc(Br)c(Br)c1F` [1.0927] belongs 4.59^[a].

The same data set, now with this note: method [a]: LC-UV, acidic range, 0.1% formic acid in water and acetonitrile.
Take `COC(=O)c1sc(Br)c(Br)c1C(F)(F)F` [II.019]: the LogP was 4.08^[a]. On the same count and under the same terms, to `CCOC(=O)c1sc(C#N)c(Cl)c1Cl` [II.068] belongs 3.50^[a]; to `N#Cc1c(C(=O)O)sc(Cl)c1Br` [II.083], 1.70^[a]. As to `O=C(NC1CCOC1=O)c1cc(Cl)c(Br)s1` (stereo not shown) [I.0220], the LogP was 2.09^[a].

For the compound `COC(=O)c1sc(Cl)c(Br)c1Cl` [II.027], the LogP is 3.94^[a]. On the same count and under the same terms, to `Cc1c(C(=O)NC2CCOC2=O)sc(C#N)c1Br` (stereo not shown) [I.1034] belongs 1.92^[a]; to `O=C(O)c1cc(Br)c(F)s1` [II.035], 1.94^[a]. Still for that read-out and setting: the same measure for `O=C(NC1CCSC1=O)c1sc(Br)c(Br)c1Cl` (stereo not shown) [I.1005]: 3.25^[a]; for `CCOC(=O)c1cc(Br)c(C(F)(F)F)s1` [II.082]: 4.40^[a]; for `N#Cc1c(Br)sc(C(=O)O)c1Br` [II.044]: 1.73^[a].

For `COC(=O)c1sc(C)c(Cl)c1Cl` [II.058], the LogP was 3.49^[a].

`Cc1c(C(=O)N[C@H]2CCOC2=O)sc(Br)c1Cl` [I.0763]: the LogP was 2.42^[a]. Still for that read-out and setting: to `COC(=O)c1sc(F)c(Br)c1Cl` [II.059] belongs 3.44^[a]; to `O=C(NC1CCNC1=O)c1cc(Br)c(Cl)s1` (stereo not shown) [I.0222], 1.73^[a].

The data set is the same for the next values; noted with them: method [a]; compounds of formula (I), Table 1.1.
As to `O=C(CNC(=O)c1sc(Br)c(Br)c1F)Sc1ccccc1` [1.0016], the LogP was 3.89^[a]. Still for that read-out and setting: the same measure for `CCOC(=O)C(CC(N)=O)NC(=O)c1sc(Br)c(Cl)c1C` (stereo not shown) [1.0043]: 2.22^[a]; for `CCOC(=O)C1(NC(=O)c2sc(Br)c(Br)c2F)CCOCC1` [1.0011]: 3.13^[a]; for `CCOC(=O)C(Cc1ccccc1)NC(=O)c1sc(C#N)c(Br)c1C` (racemic) [1.0028]: 3.74^[a].

Take `CCOC(=O)CCNC(=O)c1sc(Br)c(Cl)c1C` [1.0073]: the LogP was 3.11^[a]. The same measure, in the same setting: to `CCOC(=O)C1(NC(=O)c2sc(Cl)c(Br)c2C)COC1` [1.0034] belongs 2.88^[a]; to `COC(=O)[C@H](CCCNC(=N)N)NC(=O)c1sc(Br)c(Cl)c1C` [1.0131], 1.71^[a]; to `Cc1c(C(=O)NC(C#N)c2ccccc2)sc(Br)c1Cl` (stereo not shown) [1.0113], 3.81^[a]. On the same count and under the same terms, the same measure for `CCSC(=O)C(NC(=O)c1sc(Br)c(Br)c1F)C(C)C` (racemic) [1.0014]: 4.87^[a]; for `CCOC(=O)C(Cc1c[nH]c2ccccc12)NC(=O)c1sc(Cl)c(Br)c1C` (stereo not shown) [1.0128]: 4.15^[a]; for `CCOC(=O)C(CC(C)C)NC(=O)c1sc(Br)c(Cl)c1C` (stereo not shown) [1.0078]: 4.53^[a].

The data set is the same for the next values; noted with them: method marked [a].
For the compound `CCOC(=O)C(CO)NC(=O)c1sc(Cl)c(Cl)c1Br` (stereo not shown) [1.0780], the LogP is 3.06^[a].

On to `CCOC(=O)C(Cc1ccccc1)NC(=O)c1cc(Br)c(F)s1` (stereo not shown) [1.0315], for which the LogP is 3.77^[a]. Regarding `COC(=O)CNC(=O)c1sc(Cl)c(Cl)c1C#N` [1.0681], the LogP was 2.17^[a].

For `Cc1c(C(=O)NC(C(=O)O)C2CC2)sc(C#N)c1Br` (stereo not shown) [1.0286], the LogP was 2.19^[a]. Consider `COC(=O)C(NC(=O)c1sc(Cl)c(Cl)c1C#N)C1CC1` (stereo not shown) [1.0695], for which the LogP is 2.89^[a].

With `CCOC(=O)C(CCSC)NC(=O)c1sc(Br)c(Br)c1C(F)(F)F` (stereo not shown) [1.0376], the LogP was 3.87^[a]. The same measure, in the same setting: the same measure for `COC(=O)CNC(=O)c1sc(Br)c(C#N)c1Cl` [1.0690]: 2.19^[a]; for `CCOC(=O)C1(NC(=O)c2sc(Cl)c(Br)c2C)CN(C(=O)OC(C)(C)C)C1` [1.0271]: 4.23^[a].

The same data set, now with this note: method marker [a] given with each value; Table 1.1, compounds of formula (I).
In the case of `Cc1c(C(=O)NC2(C(=O)OC(C)(C)C)CC2)sc(C#N)c1Br` [1.0971], the LogP is 3.28^[a]. The same measure, in the same setting: to `CNC(=O)CNC(=O)c1sc(Br)c(Br)c1Cl` [1.1045] belongs 2.07^[a]. The same measure, in the same setting: to `CCOC(=O)C1(NC(=O)c2sc(Cl)c(Cl)c2C(F)F)CSC1` [1.1059] belongs 3.55^[a]; to `Cc1c(C(=O)NCC(=O)OC(C)(C)C)sc(C#N)c1Br` [1.0981], 3.14^[a]. On the same count and under the same terms, to `COC(=O)C(NC(=O)c1sc(Br)c(Br)c1Cl)c1cccs1` (racemic) [1.0942] belongs 4.25^[a]. Take `CCOC(=O)C(NC(=O)c1sc(Cl)c(Cl)c1Br)C(F)(F)F` (racemic) [1.0946]: the LogP was 4.52^[a].

`CC(C)(C)OC(=O)CNC(=O)c1sc(Br)c(Br)c1Cl` [1.0986]: the LogP was 4.20^[a]. On the same count and under the same terms, the same measure for `COC(=O)[C@H](CC(=O)O)NC(=O)c1sc(Cl)c(Cl)c1Br` [1.1044]: 2.58^[a]; for `CCOC(=O)C1(NC(=O)c2sc(Br)c(Cl)c2Cl)CSC1` [1.1046]: 3.94^[a].

`Cc1c(C(=O)NC2(C(=O)OCc3ccccc3)CC2)sc(C#N)c1Br` [1.0975]: the LogP was 3.39^[a]. For the compound `COC(=O)C(C)(C)NC(=O)c1sc(C#N)c(Br)c1Br` [1.1053], the LogP is 3.34^[a]. On the same count and under the same terms, to `O=C(CNC(=O)c1sc(Br)c(Br)c1Cl)OCC1CC1` [1.0985] belongs 3.79^[a]. On the same count and under the same terms, to `COC(=O)C(Cc1ccc(Cl)cc1)NC(=O)c1sc(Br)c(Br)c1F` (stereo not shown) [1.0955] belongs 4.52^[a].

For the compound `COC(=O)C1(NC(=O)c2sc(Cl)c(Br)c2Cl)CCC1` [1.1003], the LogP was 3.74^[a].

For `COC(=O)[C@H](CCC(N)=O)NC(=O)c1sc(Cl)c(Cl)c1Br` [1.1049], the LogP was 2.25^[a].

Still in this data set, the particulars now being: reversed phase HPLC columns, method [a]: LC-UV, acidic range, 0.1% formic acid in water and acetonitrile.
Turning to `CCOC(=O)c1sc(Cl)c(Cl)c1C#N` [II.053, ethyl 4,5-dichloro-3-cyanothiophene-2-carboxylate], the chromatographic logP is 3.54.

Staying with this data set, now noted: reversed phase HPLC columns, value in preparation example, method not marked.
`CCOC(=O)c1sc(Cl)c(Cl)c1C#N` [II.053, ethyl 4,5-dichloro-3-cyanothiophene-2-carboxylate] had a chromatographic logP of 3.54.
